Assay results taken from patent publication US20060183696A1, “Use of immune cell specific conjugates for treatment of inflammatory diseases of gastrointestinal tract” (Pliva-Istrazivacki Institut d.o.o., priority 2004, published 2006).
Read-outs that look alike come from different tables or passages of the source. Values belong to the molecule of their own block, whether it stands above or below them.

Columns and labels:
in vivo [1] = details: male, BALB/CJ, mouse
Procedure: (§1) For I.N. and P.O. administration the substance was dissolved in DMSO. 0.5% methyl cellulose was added up to 100% of the total volume. The solution was applied in a volume of 10 ml/kg b.w. (P.O.) and 10 ml/kg b.w. (I.N.). For I.V. administration the substance was dissolved in DMF. PBS was added up to 100% of the total volume. The solution was applied in a volume of 5 ml/kg b.w. (I.V.)
(§2) The experiment was carried out on approximately eight week old male BALB/CJ mice (IFFA CREDO, Lyon, France), weighing ˜25 g. Animals were weighed, marked and grouped a day before the beginning of the study. After weighing each mouse was given an earmark and placed into a cage (5 mice per cage). […]
(§3) The concentration of the administered compound in biological matrices are calculated by the peak area ratios of compound 1 to an internal standard of roxithromycin using calibration curves and quality control samples.
(§4) Non-compartmental analysis was used for pharmacokinetic analysis in plasma and tissue. The pharmacokinetic parameters were calculated based on average values at each time point using WinNonlin Professional Software, Version 4.1 (Pharsight).
(§5) The pharmacokinetic parameters were calculated as disclosed herein to obtain the bioavailability wherein F=(AUC p.o.(0−∞)/AUC i.v.(0−∞))/(Di.v./Dp.o.).

TNBS induced colitis = test: TNBS-induced inflammatory bowel disease (colitis) in rats; type: in vivo, rat
Procedure: Colitis is induced in male Wistar rats by intracolonic administration of 10-50 mg of TNBS in 0.25 ml of 50% ethanol. Two days prior to administration of TNBS animals are treated with various doses of sterolide (initially ranging from 0.5 to 10 mg/kg of the compound in 0.125% carboxymethyl cellulose in phosphate buffered saline and 1% DMSO) or vehicle control (0.125% carboxymethyl cellulose in phosphate buffered saline and 1% DMSO) or standard steroid such as for example budesonide (1 mg/kg) for 14 days after the TNBS is applied. Rats were sacrificed, blood samples werewere taken (at day 7 and 15 after application of TNBS) to obtain serum samples followed by macroscopic observation and histological evaluation to determine the degree of colonic inflammation. Macroscopic and histological evaluation of tissue damage was done blindly by pathologist. The criteria for assessing macroscopic damage and the numerical rating score are as follows: 0, no damage; 1, localized hyperemia and/or edema; 2, linear ulcer<half of the width of the colon; 3, linear ulcer>half of the width of the colon; 4, small circular ulcer (<1 cm); 5, circular ulcer between 1 and 2 cm; 6, circular ulcer>2 cm. Scores from individual animals were added together and divided by number of animals to get average […] damage. For histological evaluation of colonic injury, each colon is blindly scored according to the following criteria: A) Ulceration: 0, no ulcer, epithelization; 1, small ulcer<3 mm; 2, large ulcer>3 mm; B) Inflammation: 0, no inflammation; 1, mild; 2, moderate; 3, severe; C) Depth of lesion: 0, none; 1, submucosa; 2, muscularis propria; 3, serosa; D) Necrosis: 0, none; 1, mild; 2, severe; E) Granulomas: No, no granulomas; Yes, granulomas present. Maximum score, defined as a sum of all individual scores in this scoring system is 10+granulomas. In some experiments Lekotriene B4 (LTB4) and serum α1 acidic glycoprotein were also measured as an additional indicator of inflammatory activity. Likewise, in selected experiments full thickness specimens from inflamed tissue adjacent to the ulcerated area are excised for measurement of myeloperoxidase (MPO) activity.
Improvement in this experiment is defined by the lower average macroscopic damage and lower histological score, as well as lowering of LTBB4, serum α1 acidic glycoprotein and MPO activity in sterolide treated then in the group of […] (animals receiving vehicle alone).
FIG. 1A describes the macroscopic damage score of the colon in the rat model of TNBS induced colitis (Mann-Whitney Test). The macroscopic damage score of the colon is defined as 0—no damage; 1—localized hyperemia and/or edema; 2—linear ulcer<half of the width of the colon; 3—linear>half the width of the colon or small ulcer (<1 cm) 4—circular ulcer<1 cm; 5—circular between 1 and 2 cm; and 6—circular ulcer>2 cm. The compounds 1′, 2′ and 3′ as shown in the table below were compared against budesonide [a known drug useful for the treatment of Crohn's disease in humans] as a treatment control and just a vehicle as a no treatment control. The no treatment control gave a score of 4 while the treatment control, budesonide, at a dosage of 1 mg/kg gave a score of 2.
FIG. 1B describes effect of conjugates on histological damage score in TNBS induced colitis in rats (Mann-Whitney Test). The histological damage score is defined according to the following criteria: A) Ulceration: 0, no ulcer, epithelization; 1, small ulcer<3 mm; 2, large ulcer>3 mm; B) Inflammation: 0, no inflammation; 1, mild; 2, moderate; 3, severe; C) Depth of lesion: 0, none; 1, submucosa; 2, muscularis propria; 3, serosa; D) Necrosis: 0, none; 1, mild; 2, severe; E) Granulomas: No, no granulomas; Yes, granulomas present. Maximum score, defined as a sum of all individual scores in this scoring system is 10+granulomas. […]

[2] = Oral bioavailability in rats (p.o. vs i.v., HPLC/MS-MS); details: rat, in vivo
Procedure: (§6) Male Sprague-Dawley rats weighing approximately 200 g were used. After weighing, each rat was given an earmark and placed into a cage. The day before the beginning of the study, animals were randomly distributed into 5 groups with 5 rats/group and placed into solid bottom cages, on wood dust-free bedding (VRF-1 Rodent's diet, Altromin Gmbh). During the experiment, the rats were maintained on a 12-h light-dark cycle. The rats were weighed and fasted for 12 hours prior to p.o. administration.
(§7) Compound 5 was administered p.o. in 0.125% carboxymethyl cellulose suspension. The dissolved substance was administered oral at a dose of 30 mg/kg body weight (b.w.), using 2.5 mL syringe (BD) and metal gavage. The administered volume was 10 mL/kg b.w.
(§8) Plasma and blood samples were obtained at the following time points after administration: 15, 30, 60, 120, 240, 360 and 480 minutes.
(§9) Blood samples were collected by puncturing the lateral tail vein. Prior to each blood sampling, animals were maintained in warming cabinets at 37° C. for 15 minutes. At each sampling time-point 50 μL of blood were collected and added to an Eppendorf test tube (1.5 mL) containing 50 μL demi water. Blood was collected according the time points stated in the protocol. Specimens were stored at −20° C. until analysis.
(§10) The concentrations of a compound 5 in the biological matrices were determined by a high performance liquid chromatography method using an acetonitrile and water (acidified by 0.1% formic acid) gradient as the chromatographic medium with tandem mass spectrometry detection (HPLC/MS-MS) (Guidance for Industry, Bioanalytical Method Validation, U.S. Department of Health and Human Services, Food and Drug Administration, May 2001).
(§11) Biological samples were prepared by deproteinization with acetonitrile, containing an internal standard. After centrifugation and evaporation of the supernatant fraction, samples were reconstituted in acetonitrile:water with addition of 0.1% formic acid.
(§12) HPLC separation was performed on a reverse phase C18 analytical column (Phenomenex C18(2)m 50×2 mm (3 μm) No 182700-5) with a guard column, maintained at ambient temperature, using a gradient of water:acetonitrile [0 min-1 min 10% acetonitrile, 2.5-3.5 minutes 80% acetonitrile, 3.5-5.6 min 10% acetonitrile with addition of 0.1% formic acid at flow rate 0.3 ml/min
(§13) MS-MS detection was performed in multi-resolution mode (MRM).
(§14) The concentration of the administered compound in biological matrices are calculated by the peak area ratios of compound 5 to an internal standard of roxithromycin using calibration curves and quality control samples.
(§15) The pharmacokinetic parameters were calculated using the PK solutions 2.0 software (Summit Research Services, Pharmacokinetics and Metabolism Software).
(§16) The pharmacokinetic parameters were calculated as disclosed herein to obtain the bioavailability wherein F=(AUC p.o.(0−∞)/AUC i.v. (0−∞))/(Di.v./Dp.o.).

in vivo [3] = details: male, rat, po
Procedure: as §6, §7, §8, §9, §10, §11, §12, §13, §14, §15, §16

[4] = AUC of compounds tested in mice or rats; set-up: concentration or dose not given beside the values; details: in vivo, po
Procedure: The area under the curve (AUC) is calculated as: [formula] where n is the number of data points
AUC∞=AUC(0−t)+Cn/λz, where Cn is the last concentration and λz is the elimination rate constant (estimated from the later portion of the plasma/blood concentration vs. time profiles).

[5] = mouse, in vivo
Procedure: as §1, §2, §3, §4, §5

[6] = rat, in vivo; for Amounts detected in plasma and blood: po
Procedure: as §6, §7, §8, §9, §10, §11, §12, §13, §14, §15, §16

Compound: CC[C@H]1OC(=O)[C@H](C)[C@@H](O[C@H]2C[C@@](C)(OC)[C@@H](O)[C@H](C)O2)[C@H](C)[C@@H](O[C@@H]2O[C@H](C)C[C@H](N(C)C)[C@H]2O)[C@](C)(O)C[C@@H](C)CN(CCCNC(=O)[C@@]2(O)[C@H](C)CC3C4CCC5=CC(=O)C=C[C@]5(C)[C@@]4(F)[C@@H](O)C[C@@]32C)[C@H](C)[C@@H](O)[C@]1(C)O (stereo partly shown) [2′]
- bioavailability (in vivo [1]): < 1%
- efficacy on macroscopic damage score compared with budesonide (1 mg/kg) (TNBS induced colitis; FIG. 1A, 2 mg/kg): comparable or superior efficacy to that of the standard steroid budesonide
- efficacy on histological damage score compared with budesonide (1 mg/kg) (TNBS induced colitis; FIG. 1B, 2 mg/kg): comparable or superior efficacy to that of the standard steroid budesonide

- bioavailability ([2]; male): 3.7%
- AUC [2]: 2580 ng·h/mL
- bioavailability [2]: < 10%
Compound: CC[C@H]1OC(=O)[C@H](C)[C@@H](O[C@H]2C[C@@](C)(OC)[C@@H](O)[C@H](C)O2)[C@H](C)[C@@H](O[C@@H]2O[C@H](C)C[C@H](N(C)C)[C@H]2O)[C@](C)(O)C[C@@H](C)CN(CCCNC(=O)Cc2c(C)n(C(=O)c3ccc(Cl)cc3)c3ccc(OC)cc23)[C@H](C)[C@@H](O)[C@]1(C)O [3′]
- efficacy on macroscopic damage score compared with budesonide (1 mg/kg) (TNBS induced colitis; FIG. 1A, 10 mg/kg): comparable or superior efficacy to that of the standard steroid budesonide
- efficacy on histological damage score compared with budesonide (1 mg/kg) (TNBS induced colitis; FIG. 1B, 10 mg/kg): comparable or superior efficacy to that of the standard steroid budesonide

- bioavailability ([2]; male): 6.9%
- AUC [2]: 2180 ng·h/mL
- bioavailability [2]: < 10%
Compound: CC[C@H]1OC(=O)[C@H](C)[C@@H](O[C@H]2C[C@@](C)(OC)[C@@H](O)[C@H](C)O2)[C@H](C)[C@@H](O[C@@H]2O[C@H](C)C[C@H](N(C)C)[C@H]2O)[C@](C)(O)C[C@@H](C)CN(CCCNC(=O)c2cccnc2Nc2cccc(C(F)(F)F)c2C)[C@H](C)[C@@H](O)[C@]1(C)O [4′]

- bioavailability ([2]; male): 2.5%
- AUC [2]: 1130 ng·h/mL
- bioavailability [2]: < 10%
Compound: CC[C@H]1OC(=O)[C@H](C)[C@@H](O)[C@H](C)[C@@H](O[C@@H]2O[C@H](C)C[C@H](N(C)C)[C@H]2O)[C@](C)(O)C[C@@H](C)CN(CCCNC(=O)Cc2c(C)n(C(=O)c3ccc(Cl)cc3)c3ccc(OC)cc23)[C@H](C)[C@@H](O)[C@]1(C)O [9′]

Compound: CC[C@H]1OC(=O)[C@H](C)[C@@H](OC2C[C@@](C)(OC)[C@@H](O)[C@H](C)O2)[C@H](C)C(O[C@@H]2O[C@H](C)C[C@H](N(C)C)[C@H]2O)[C@](C)(O)C[C@@H](C)CN(CCCNCCC(=O)O[C@]2(C(=O)OC)[C@H](C)CC3C4C[C@H](F)C5=CC(=O)C=C[C@]5(C)[C@@]4(F)[C@@H](O)C[C@@]32C)[C@H](C)[C@@H](O)[C@]1(C)O (stereo partly shown) [10′]
- bioavailability (in vivo [3]): < 1%

- bioavailability ([2]; male): < 1%
Compound: CC[C@H]1OC(=O)[C@H](C)[C@@H](O[C@H]2C[C@@](C)(OC)[C@@H](O)[C@H](C)O2)[C@H](C)C(O[C@@H]2O[C@H](C)C[C@H](N(C)C)[C@H]2O)[C@](C)(O)C[C@@H](C)/C(=N\OCCCCCCNC(=O)CNS(=O)(=O)c2ccc(-n3nc(C(F)(F)F)cc3-c3ccc(C)cc3)cc2)[C@H](C)[C@@H](O)[C@]1(C)O (stereo partly shown) [11′]

Compound: CCCC1O[C@@H]2C[C@H]3[C@@H]4CCC5=CC(=O)C=C[C@]5(C)[C@H]4[C@@H](O)C[C@]3(C)[C@]2(C(=O)CO)O1 (stereo partly shown) [Budesonide, budesonide, reference compound]
- macroscopic damage score of the colon (TNBS induced colitis; FIG. 1A, 1 mg/kg, score 0-6, no treatment control 4): 2
- histological damage score (TNBS induced colitis; FIG. 1B, 1 mg/kg, maximum score 10, no treatment control 7,6): 4,5

Compound: CC[C@H]1OC(=O)[C@H](C)[C@@H](O)[C@H](C)[C@@H](O)[C@](C)(O)C[C@@H](C)CN(CCCNCCC(=O)O[C@]2(C(=O)OC)[C@H](C)CC3C4C[C@H](F)C5=CC(=O)C=C[C@]5(C)[C@@]4(F)[C@@H](O)C[C@@]32C)[C@H](C)[C@@H](O)[C@]1(C)O (stereo partly shown) [Compound 1]
- AUC [4]: 70 ng·h/mL
- oral bioavailability [5]: not measurable

Compound: CC[C@H]1OC(=O)[C@H](C)[C@@H](O)[C@H](C)[C@@H](O)[C@](C)(O)C[C@@H](C)CN(CCCNC(=O)[C@H]2[C@H](C)CC3C4CCC5=CC(=O)C=C[C@]5(C)[C@@]4(F)[C@@H](O)C[C@@]32C)[C@H](C)[C@@H](O)[C@]1(C)O (stereo partly shown) [Compound 1′]
- efficacy on macroscopic damage score compared with budesonide (1 mg/kg) (TNBS induced colitis; FIG. 1A, 2 mg/kg): comparable or superior efficacy to that of the standard steroid budesonide
- efficacy on histological damage score compared with budesonide (1 mg/kg) (TNBS induced colitis; FIG. 1B, 2 mg/kg): comparable or superior efficacy to that of the standard steroid budesonide
- efficacy on macroscopic damage score compared with budesonide (1 mg/kg) (TNBS induced colitis; FIG. 2, dosages ranging from 4 mg/kg to 0.5 mg/kg): comparable or superior efficacy to that of the standard steroid budesonide

Compound: CC[C@H]1OC(=O)C(C)[C@@H](O[C@H]2C[C@@](C)(OC)[C@@H](O)[C@H](C)O2)[C@H](C)[C@@H](O[C@@H]2O[C@H](C)C[C@H](N(C)C)[C@H]2O)[C@](C)(O)C[C@@H](C)/C(=N\OCCCCCNC(=O)[C@@]2(O)[C@H](C)CC3C4CCC5=CC(=O)C=C[C@]5(C)[C@@]4(F)[C@@H](O)C[C@]32C)[C@H](C)[C@@H](O)[C@]1(C)O (stereo partly shown) [Compound 5]
- oral bioavailability ([6]; 30 mg/kg): not measurable
- Amounts detected in plasma and blood ([6]; 30 mg/kg): below the limits of detection

Compound: CC[C@H]1OC(=O)[C@H](C)C(OC2C[C@@](C)(OC)[C@@H](O)[C@H](C)O2)[C@H](C)[C@@H](O[C@@H]2O[C@H](C)C[C@H](N(C)CCCNC(=O)[C@]3(O)[C@H](C)CC4C5CCC6=CC(=O)C=C[C@]6(C)[C@@]5(F)[C@@H](O)C[C@@]43C)[C@H]2O)[C@](C)(O)C[C@H](C)CN(C)[C@H](C)[C@@H](O)[C@]1(C)O (stereo partly shown) [Compound 6]
- AUC [4]: 400 ng·h/mL

Compound: CC[C@H]1OC(=O)[C@H](C)[C@@H](O)[C@H](C)[C@@H](O)[C@](C)(O)C[C@@H](C)CN(CCCN(CC)CCC(=O)O[C@]2(C(=O)OC)[C@H](C)CC3C4C[C@H](F)C5=CC(=O)C=C[C@]5(C)[C@@]4(F)[C@@H](O)C[C@@]32C)[C@H](C)[C@@H](O)[C@]1(C)O (stereo partly shown) [Compound 8]
- AUC [4]: 60 ng·h/mL

Compound: CCCCN(CCCN1C[C@H](C)C[C@@](C)(O)[C@H](O)[C@@H](C)[C@H](O)[C@@H](C)C(=O)O[C@H](CC)[C@@](C)(O)[C@H](O)[C@H]1C)CCC(=O)O[C@]1(C(=O)OC)[C@H](C)CC2C3C[C@H](F)C4=CC(=O)C=C[C@]4(C)[C@@]3(F)[C@@H](O)C[C@@]21C (stereo partly shown) [Compound 9]
- AUC [4]: 390 ng·h/mL

Compound: CCCN(CCCN1C[C@H](C)C[C@@](C)(O)[C@H](O)[C@@H](C)[C@H](O)[C@@H](C)C(=O)O[C@H](CC)[C@@](C)(O)[C@H](O)[C@H]1C)CCC(=O)O[C@]1(C(=O)OC)[C@H](C)CC2C3C[C@H](F)C4=CC(=O)C=C[C@]4(C)[C@@]3(F)[C@@H](O)C[C@@]21C (stereo partly shown) [Compound 10]
- AUC [4]: 60 ng·h/mL

Compound: CC[C@H]1OC(=O)[C@H](C)[C@@H](O)[C@H](C)[C@@H](O)[C@](C)(O)C[C@@H](C)CN(CCCNC(=O)[C@H]2[C@H](C)CC3C4CCC5=CC(=O)C=C[C@]5(C)[C@@]4(F)[C@@H](O)C[C@@]32C)[C@H](C)[C@@H](O)[C@]1(C)O (stereo partly shown) [drawing 72]
- oral bioavailability [6]: not measurable
- Amounts detected in plasma and blood [6]: below the limits of detection
